We go through 14 compounds from patent publication US20240139226A1, “A COMPOSITION FOR PROMOTING GLP-1 SECRETION” (priority 2021, published 2024).

The test relates to NCI-H716 cells. Kind of test: GLP-1 secretion-promoting effect using NCI-H716 cells (GLP-1 in supernatant by ELISA). It is filed as cell-based, Human. Conditions: for GLP-1 secretion compared to Control: Experiment 1-3, text on Table 1, mGN 2.5 mM, flavor component 0.25 mM; for activity at 125 µM: test sample alone at 0.125 mM; for activity at 25 µM: test sample alone at 0.025 mM; for activity at 2500 µM: test sample alone at 2.5 mM; for activity at 25000 µM: test sample alone at 25 mM. On the procedure: GLP-1 secretion-promoting effect was evaluated by the following experiment using NCI-H716 cells (Human intestinal tract-derived cell line; purchased from ATCC).
NCI-H716 cells were cultured at 37° C. with 5% CO2 using RPMI1640 (supplemented with 10% Fetal Bovine Serum, manufactured by Sigma) as a cell culture medium for passage. After culturing, cells were suspended in DMEM medium (supplemented with 10% Fetal Bovine Serum; containing 4.5 mg/mL of glucose; manufactured by Shimadzu Diagnostics Corporation, Tokyo, Japan) and added to a Matrigel (120 μL/well; manufactured by Corning Incorporated, NY, USA)-coated 48-well plate at a cell density of 1.2×10^5 cells/well. After incubation for 2 days, the cells were washed twice with 20 mM HEPES-containing HBSS (Hank's Balanced Salt Solution) buffer. After removal of the washing buffer, 20 mM HEPES-HBSS (supplemented with 0.01% BSA) containing the above-described test samples was added and the cells were incubated for 2 hours. After incubation, the supernatant was collected into a microcentrifuge tube containing diprotin-A (DPP4 inhibitor, manufactured by Abcam plc., Cambridge, UK) and protease inhibitors (cOmplete™, EDTA-free Protease Inhibitor Cocktail, Roche, Basel, Switzerland; Catalogue No. 1187358001). After centrifugation, the supernatant was stored at −80° C. until it was used for the GLP-1 measurement. The amount of GLP-1 in the medium was measured by ELISA method using GLP-1 Active Form Assay Kit (manufactured by Immuno-Biological Laboratories Co, Ltd., Gunma, Japan). […] As a positive control for measuring cytotoxicity, the cells added with 0.1% Triton X-100/PBS (−) (Phosphate Buffered Saline) were used. The LDH activity in the cell culture supernatant of the positive control was set as 100% and the ratio to the positive control (LDH activity in the cell culture supernatant of sample/LDH activity in the positive control) was calculated as the cytotoxicity rate. Herein, it was judged that a sample had no cytotoxicity when the cytotoxicity rate was within ±2% compared to that of “control (cells cultured with 20 mM HEPES-HBSS without a test sample, instead of 20 mM HEPES-HBSS containing a test sample; shown as “No Addition” in Table 1)”.
The amount of GLP-1 secretion was determined as a relative value to the average value of the GLP-1 secretion amount obtained for a control (cells cultured with 20 mM HEPES-HBSS without a test sample instead of 20 mM HEPES-HBSS containing a test sample; shown as “No Addition” in Table 1). In Table 1, the GLP-1 secretion amounts when mGN and flavor components were used separately and the GLP-1 secretion amounts when mGN and flavor components were used in combination were shown. […] The synergistic effect of mGN and flavor components in promoting GLP-1 secretion was judged based on the following criteria.
Synergistic Effect: Theoretical Value<(is less than) Measured Value • Theoretical Value=([…])×100+(B/D−1)×100 • Measured Value=(C/D-1)×100
The theoretical value and the measure value were compared based on the above formula. When the measured value was higher than the theoretical value, it was judged that there was a synergistic effect, which was indicated as “O” in the table.
The presence or absence of the synergistic effect by the combination of mGN and thymol was judged based on the formula used in Experiment 1-3. When the measured value was higher than the theoretical value, it was judged that there was a synergistic effect and it was indicated as “O” in the table. Furthermore, a Tukey-Kramer test was performed. When there was a significant difference (Risk Rate p<0.05) between the GLP-1 secretion amount of the combination of mGN and thymol (C) and each of the GLP-1 secretion amount of Control (D), mGN alone (A), and thymol alone (B), it was indicated “⊚” in the below table.
In general terms: ELISA stands for enzyme-linked immunosorbent assay.

[1] abbreviates: Homo sapiens, NCI-H716, 2 h, Table 1, Experiment 1-3, test sample alone at 0.25 mM, Control (No Addition) = 100, 2 hours, read-out: GLP-1 secretion amount, Independent Use (relative value to Control).
[2] abbreviates: Experiment 1-3, flavor component alone 0.25 mM.
The mark [3] stands for this setting: Table 1, Experiment 1-3, test sample alone at 0.25 mM, Control (No Addition) = 100, 2 hours.
The mark [4] stands for this setting: Homo sapiens, NCI-H716, 2 h, Table 4, Experiment 4, Control = 100, N=3, read-out: GLP-1 secretion amount, Independent Use (relative value to Control).
Where [5] appears, read: Homo sapiens, NCI-H716, 2 h, Table 4, Experiment 4, test sample alone at 0.25 mM, Control = 100, N=3, read-out: GLP-1 secretion amount, Independent Use (relative value to Control).
The mark [6] stands for this setting: Homo sapiens, NCI-H716, 2 h, Table 3, Experiment 3, Control = 100, N=3, read-out: GLP-1 secretion amount, Independent Use (relative value to Control).
Setting [7] is: Homo sapiens, NCI-H716, 2 h, Table 2, Experiment 2, Control = 100, N=3, read-out: GLP-1 secretion amount, Independent Use (relative value to Control).
Where [8] appears, read: Homo sapiens, NCI-H716, 2 h, Table 6, Experiment 6, Control = 100, N=3, read-out: GLP-1 secretion amount, Independent Use (relative value to Control).

Read-outs that look alike come from different tables or passages of the source.

On to `C=C1C2CCC(C2)C1(C)C` (centres unmarked) [Camphene, camphene], for which the activity at 250 µM under setting [1] came to 135%.
For the compound `CC(C)=CCCC(C)=CC=O` [Citral, citral, reference compound], the “GLP-1 secretion compared to Control” value was “approximately 2.4 times”. Further, the activity at 250 µM under setting [1] amounted to 246%.
As for `CC(C)=CCCC(C)CC=O` (centres unmarked) [Citronellal, citronellal, reference compound], under setting [1], the activity at 250 µM was found to be 113%.
Consider `CNc1ccccc1C(=O)OC` [Methyl N-methyl anthranilate, methyl N-methyl anthranilate], for which the “GLP-1 secretion promoting effect when used alone (in words)” value (shortened to “GLP-1 secretion promoting effect”) under setting [2] was “no GLP-1 secretion promoting effect”. Besides, the “GLP-1 secretion amount, Independent Use (relative value to Control)” value under setting [3] amounted to 73.
As to `COC(=O)c1ccccc1N` [Methyl anthranilate, methyl anthranilate], the “GLP-1 secretion promoting effect” value under setting [2] is given as “no GLP-1 secretion promoting effect”. Moreover, for the setting “Homo sapiens, NCI-H716, 2 h, read-out: GLP-1 secretion amount, Independent Use (relative value to Control)”, the activity at 250 µM turned out to be 73%.
Regarding `C=C(C)[C@@H]1CCC2=CC(=O)C[C@@H](C)[C@]2(C)C1` [Nootkatone, nootkatone], the “GLP-1 secretion when used alone (in words)” value (Experiment 4, alone, concentrations of Table 4) is “promoted in a nootkatone concentration-dependent manner”. In addition, the activity at 250 µM under setting [1] came to 457% and the activity at 250 µM under setting [5] came to 464%. For the same compound, for the setting “Homo sapiens, NCI-H716, 2 h, Table 4, Experiment 4, test sample alone at 0.0125 mM, Control = 100, N=3, read-out: GLP-1 secretion amount, Independent Use (relative value to Control)”, the activity at 12.5 µM turned out to be 70%. Besides, the activity at 37.5 µM (Homo sapiens, NCI-H716, 2 h, Table 4, Experiment 4, test sample alone at 0.0375 mM, Control = 100, N=3, read-out: GLP-1 secretion amount, Independent Use (relative value to Control)) came to 111%. Further, the activity at 125 µM under setting [4] worked out at 350%.
For the compound `C=C1CCC2(C(C)C)CC12` (centres unmarked) [Sabinene, sabinene], the “GLP-1 secretion promoting effect” value under setting [2] is reported as “no GLP-1 secretion promoting effect”. In addition, the activity at 250 µM under setting [1] amounted to 101%.
Consider `Cc1ccc(C(C)C)c(O)c1` [Thymol, thymol], for which, under setting [2], the “GLP-1 secretion promoting effect” value is given as “no GLP-1 secretion promoting effect”. Moreover, the “GLP-1 secretion-promoting effect when used alone (in words)” value (Experiment 2, alone at a concentration of 0.25 mM) is listed as “no GLP-1 secretion-promoting effect was observed”. The “GLP-1 secretion promoting effect” value (Experiment 3, alone, 0.0067 mM to 0.125 mM) is given as “no GLP-1 secretion promoting effect”. Also, under setting [1], the activity at 250 µM turned out to be 82%. Also, where the note is “Homo sapiens, NCI-H716, 2 h, Table 3, Experiment 3, test sample alone at 0.0067 mM, Control = 100, N=3, read-out: GLP-1 secretion amount, Independent Use (relative value to Control)”, the activity at 6.7 µM was 34%. Moreover, under setting [6], the activity at 25 µM was 61% and the activity at 125 µM was 65%.
Regarding `C=C(C)[C@@H]1CCC2=CCC[C@@H](C)[C@]2(C)C1` [Valencene, valencene], under setting [3], the “GLP-1 secretion amount, Independent Use (relative value to Control)” value was 121.
Regarding `CC1O[C@@H](OC2[C@H](Oc3cc(O)c4c(c3)OC(c3ccc(O)cc3)CC4=O)OC(CO)[C@@H](O)[C@H]2O[C@H]2OC(CO)[C@@H](O)[C@@H](O)C2O)C(O)[C@@H](O)[C@H]1O` (stereo partly drawn) [mGN, 3″-α-monoglucosyl naringin], the “GLP-1 secretion compared to Control” value is given as “approximately 1.6 times”. The “GLP-1 secretion when used alone (in words)” value (Experiment 2, alone, 0.025 mM to 150 mM) was “promoted to some extent in a mGN concentration-dependent manner”. The activity at 2500 µM (Homo sapiens, NCI-H716, 2 h, Table 1, Experiment 1-3, Control (No Addition) = 100, 2 hours, read-out: GLP-1 secretion amount, Independent Use (relative value to Control)) was determined as 164%. Moreover, under setting [7], the activity at 25 µM was determined as 45%, the activity at 2500 µM came out at 121% and the activity at 25000 µM turned out to be 427%. In addition, the activity at 250 µM (Homo sapiens, NCI-H716, 2 h, Table 2, Experiment 2, test sample alone at 0.25 mM, Control = 100, N=3, read-out: GLP-1 secretion amount, Independent Use (relative value to Control)) is 63%. For the same compound, the activity at 25000 µM under setting [6] is 521%. Further, under setting [4], the activity at 25 µM came to 39% and the activity at 2500 µM was determined as 85%. Further, the activity at 250 µM under setting [5] was found to be 63%. Also, the activity at 12500 µM (Homo sapiens, NCI-H716, 2 h, Table 4, Experiment 4, test sample alone at 12.5 mM, Control = 100, N=3, read-out: GLP-1 secretion amount, Independent Use (relative value to Control)) turned out to be 502%. The activity at 25 µM (Homo sapiens, NCI-H716, 2 h, Table 5, Experiment 5, Control = 100, N=3, read-out: GLP-1 secretion amount, Independent Use (relative value to Control)) turned out to be 39%. Under setting [8], the activity at 25 µM was 53% and the activity at 25000 µM stood at 457%.
As for `CC1=CCC2CC1C2(C)C` (stereo not drawn) [α-Pinene, α-pinene], the activity at 250 µM under setting [1] is 136%.
`C=C1CC/C=C(\C)CC[C@@H]2[C@@H]1CC2(C)C` [β-Caryophyllene, β-caryophyllene]: under setting [3], the “GLP-1 secretion amount, Independent Use (relative value to Control)” value was found to be 111.
Same read-out and setting: the figure for `CC(=O)/C=C/C1=C(C)CCCC1(C)C` [β-Ionone, β-ionone] is 157.
For the compound `C=C1CCC2CC1C2(C)C` (stereo not drawn) [β-Pinene, β-pinene], the “GLP-1 secretion promoting effect” value under setting [2] is on record as “no GLP-1 secretion promoting effect”. Under setting [1], the activity at 250 µM worked out at 100%.
